Test system: rat small-intestinal brush border membrane vesicles
Experiment: Inhibitory effect on 33PO4 uptake into rat small-intestinal brush border membrane vesicles (rapid filtration method)
Format: biochemical, Wistar female rat
Details: 1 µM test compound; 33PO4 uptake into rat small-intestinal BBMVs, 60 seconds
How it was run: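 33PO4 uptake into rat small-intestinal brush border membrane vesicles measured by rapid filtration. Reactions were stopped with ice-cold buffer (110 mM NaCl, 1 mM KH2PO4, 10 mM HEPES pH 7.5), filtered and washed. Vesicle-associated radioactivity was counted by liquid scintillation.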

Compound | Rate of uptake inhibition (%) (1 µM)
C[C@]12CCCN1N(Cc1cccc(Cl)c1)C(=O)C(C(=O)Nc1ccc(C(F)(F)F)cc1-c1ccc(C(F)(F)F)nc1)=C2O [Example 169] | 73%
C[C@]12CCCN1N(Cc1ccc(F)c(F)c1)C(=O)C(C(=O)Nc1ccc(C(F)(F)F)cc1-c1ccc(C(F)(F)F)nc1)=C2O [Example 170] | 73%
C[C@]12CCCN1N(Cc1cc(F)cc(F)c1)C(=O)C(C(=O)Nc1ccc(C(F)(F)F)cc1-c1ccc(C(F)(F)F)nc1)=C2O [Example 171] | 78%
C[C@]12CCCN1N(Cc1cc(F)ccc1F)C(=O)C(C(=O)Nc1ccc(C(F)(F)F)cc1-c1ccc(C(F)(F)F)nc1)=C2O [Example 172] | 72%
C[C@]12CCCN1N(Cc1ccc(F)cc1F)C(=O)C(C(=O)Nc1ccc(C(F)(F)F)cc1-c1ccc(C(F)(F)F)nc1)=C2O [Example 173] | 73%
C[C@]12CCCN1N(Cc1cccc(F)c1Cl)C(=O)C(C(=O)Nc1cc(F)c(Br)c(F)c1)=C2O [Example 174] | 87%
COc1cccc(CN2C(=O)C(C(=O)Nc3ccc(C(F)(F)F)cc3-c3ccc(C(F)(F)F)nc3)=C(O)[C@@]3(C)CCCN23)c1OC [Example 175] | 85%
COc1ccc(OC)c(CN2C(=O)C(C(=O)Nc3ccc(C(F)(F)F)cc3-c3ccc(C(F)(F)F)nc3)=C(O)[C@@]3(C)CCCN23)c1 [Example 176] | 75%
C[C@]12CCCN1N(Cc1cccc(OC(F)F)c1)C(=O)C(C(=O)Nc1ccc(C(F)(F)F)cc1-c1cc(C(F)(F)F)ncn1)=C2O [Example 177] | 85%
C[C@]12CCCN1N(Cc1ccccc1C#N)C(=O)C(C(=O)Nc1ccc(C(F)(F)F)cc1-c1cc(C(F)(F)F)ncn1)=C2O [Example 178] | 81%
C[C@]12CCCN1N(Cc1cccc(C#N)c1)C(=O)C(C(=O)Nc1ccc(C(F)(F)F)cc1-c1cc(C(F)(F)F)ncn1)=C2O [Example 179] | 83%
C[C@]12CCCN1N(Cc1ccccc1Cl)C(=O)C(C(=O)Nc1ccc(C(F)(F)F)cc1-c1cc(C(F)(F)F)ncn1)=C2O [Example 180] | 75%
C[C@]12CCCN1N(Cc1cccc(Cl)c1)C(=O)C(C(=O)Nc1ccc(C(F)(F)F)cc1-c1cc(C(F)(F)F)ncn1)=C2O [Example 181] | 85%
C[C@]12CCCN1N(Cc1ccc(Cl)cc1)C(=O)C(C(=O)Nc1ccc(C(F)(F)F)cc1-c1cc(C(F)(F)F)ncn1)=C2O [Example 182] | 86%
COC(=O)c1cccc(CN2C(=O)C(C(=O)Nc3ccc(C(F)(F)F)cc3-c3cc(C(F)(F)F)ncn3)=C(O)[C@@]3(C)CCCN23)c1 [Example 183] | 82%
C[C@]12CCCN1N(Cc1ccc(F)c(Br)c1)C(=O)C(C(=O)Nc1ccc(C(F)(F)F)cc1-c1cc(C(F)(F)F)ncn1)=C2O [Example 184] | 79%
Cc1ccccc1CN1C(=O)C(C(=O)Nc2ccc(C(F)(F)F)cc2-c2cc(C(F)(F)F)ncn2)=C(O)[C@@]2(C)CCCN12 [Example 185] | 83%
Cc1cccc(CN2C(=O)C(C(=O)Nc3ccc(C(F)(F)F)cc3-c3cc(C(F)(F)F)ncn3)=C(O)[C@@]3(C)CCCN23)c1 [Example 186] | 88%
Cc1ccc(CN2C(=O)C(C(=O)Nc3ccc(C(F)(F)F)cc3-c3cc(C(F)(F)F)ncn3)=C(O)[C@@]3(C)CCCN23)cc1 [Example 187] | 80%
C[C@]12CCCN1N(Cc1ccccc1)C(=O)C(C(=O)Nc1ccc(C(F)(F)F)cc1-c1cc(C(F)(F)F)ncn1)=C2O [Example 188] | 93%
C[C@]12CCCN1N(Cc1cccc(OC(F)(F)F)c1)C(=O)C(C(=O)Nc1ccc(C(F)(F)F)cc1-c1cc(C(F)(F)F)ncn1)=C2O [Example 189] | 73%
C[C@]12CCCN1N(Cc1cc(F)cc(F)c1)C(=O)C(C(=O)Nc1cc(F)c(Br)c(F)c1)=C2O [Example 190] | 84%
C[C@]12CCCN1N(Cc1ccc(F)c(F)c1)C(=O)C(C(=O)Nc1cc(F)c(Br)c(F)c1)=C2O [Example 191] | 87%
C[C@]12CCCN1N(Cc1ccc(F)cc1F)C(=O)C(C(=O)Nc1cc(F)c(Br)c(F)c1)=C2O [Example 192] | 88%
C[C@]12CCCN1N(Cc1cc(F)ccc1F)C(=O)C(C(=O)Nc1cc(F)c(Br)c(F)c1)=C2O [Example 193] | 82%
C[C@]12CCCN1N(Cc1cc(F)c(F)cc1F)C(=O)C(C(=O)Nc1cc(F)c(Br)c(F)c1)=C2O [Example 194] | 80%
Cc1cccc(CN2C(=O)C(C(=O)Nc3cc(F)c(Br)c(F)c3)=C(O)[C@@]3(C)CCCN23)c1F [Example 195] | 76%

Compound | Rate of uptake inhibition (%) (1 µM)
C[C@]12CCCN1N(Cc1cc(F)c(F)c(F)c1)C(=O)C(C(=O)Nc1cc(F)c(Br)c(F)c1)=C2O [Example 197] | 82%
C[C@]12CCCN1N(Cc1cccc(Cl)c1F)C(=O)C(C(=O)Nc1ccc(C(F)(F)F)cc1-c1ccc(C(F)(F)F)nc1)=C2O [Example 198] | 75%
C[C@]12CCCN1N(Cc1ccc(F)cc1)C(=O)C(C(=O)Nc1ccc(C(F)(F)F)cc1-c1ccc(C(F)(F)F)nc1)=C2O [Example 199] | 79%
C[C@]12CCCN1N(Cc1ccccc1F)C(=O)C(C(=O)Nc1ccc(C(F)(F)F)cc1-c1ccc(C(F)(F)F)nc1)=C2O [Example 200] | 80%
C[C@]12CCCN1N(Cc1cccc(F)c1Cl)C(=O)C(C(=O)Nc1ccc(C(F)(F)F)cc1-c1ccc(C(F)(F)F)nc1)=C2O [Example 201] | 77%
COc1cc(CN2C(=O)C(C(=O)Nc3ccc(C(F)(F)F)cc3-c3ccc(C(F)(F)F)nc3)=C(O)[C@@]3(C)CCCN23)cc(OC)c1 [Example 202] | 75%
C[C@]12CCCN1N(Cc1c(F)cccc1F)C(=O)C(C(=O)Nc1ccc(C(F)(F)F)cc1-c1ccc(C(F)(F)F)nc1)=C2O [Example 203] | 91%
C[C@]12CCCN1N(Cc1c(F)cccc1Cl)C(=O)C(C(=O)Nc1ccc(C(F)(F)F)cc1-c1ccc(C(F)(F)F)nc1)=C2O [Example 204] | 87%
Cc1cccc(CN2C(=O)C(C(=O)Nc3ccc(C(F)(F)F)cc3-c3ccc(C(F)(F)F)nc3)=C(O)[C@@]3(C)CCCN23)c1F [Example 205] | 86%
C[C@]12CCCN1N(Cc1cccc(F)c1)C(=O)C(C(=O)Nc1ccc(C(F)(F)F)cc1-c1ccc(C(F)(F)F)nc1)=C2O [Example 206] | 76%
C[C@]12CCCN1N(Cc1ccccc1F)C(=O)C(C(=O)Nc1ccc(C(F)(F)F)cc1-c1cc(C(F)(F)F)ncn1)=C2O [Example 207] | 73%
C[C@]12CCCN1N(Cc1ccc(F)cc1)C(=O)C(C(=O)Nc1ccc(C(F)(F)F)cc1-c1cc(C(F)(F)F)ncn1)=C2O [Example 208] | 90%
C[C@]12CCCN1N(Cc1cccc(Cl)c1F)C(=O)C(C(=O)Nc1ccc(C(F)(F)F)cc1-c1cc(C(F)(F)F)ncn1)=C2O [Example 209] | 76%
C[C@]12CCCN1N(Cc1c(F)cccc1Cl)C(=O)C(C(=O)Nc1ccc(C(F)(F)F)cc1-c1cc(C(F)(F)F)ncn1)=C2O [Example 210] | 71%
C[C@]12CCCN1N(Cc1cc(Cl)ccc1F)C(=O)C(C(=O)Nc1ccc(C(F)(F)F)cc1-c1cc(C(F)(F)F)ncn1)=C2O [Example 211] | 72%
C[C@]12CCCN1N(Cc1c(F)cccc1F)C(=O)C(C(=O)Nc1ccc(C(F)(F)F)cc1-c1cc(C(F)(F)F)ncn1)=C2O [Example 212] | 98%
C[C@]12CCCN1N(Cc1cc(F)cc(F)c1)C(=O)C(C(=O)Nc1ccc(C(F)(F)F)cc1-c1cc(C(F)(F)F)ncn1)=C2O [Example 213] | 79%
C[C@]12CCCN1N(Cc1ccc(F)c(F)c1)C(=O)C(C(=O)Nc1ccc(C(F)(F)F)cc1-c1cc(C(F)(F)F)ncn1)=C2O [Example 214] | 91%
Cc1cccc(CN2C(=O)C(C(=O)Nc3ccc(C(F)(F)F)cc3-c3cc(C(F)(F)F)ncn3)=C(O)[C@@]3(C)CCCN23)c1F [Example 215] | 86%
C[C@]12CCCN1N(Cc1ccccc1C#N)C(=O)C(C(=O)Nc1cc(F)c(Br)c(F)c1)=C2O [Example 218] | 82%
C[C@]12CCCN1N(Cc1ccccc1Cl)C(=O)C(C(=O)Nc1cc(F)c(Br)c(F)c1)=C2O [Example 219] | 95%
C[C@]12CCCN1N(Cc1cccc(C#N)c1)C(=O)C(C(=O)Nc1cc(F)c(Br)c(F)c1)=C2O [Example 220] | 96%
C[C@]12CCCN1N(Cc1cccc(Cl)c1)C(=O)C(C(=O)Nc1cc(F)c(Br)c(F)c1)=C2O [Example 221] | 82%
C[C@]12CCCN1N(Cc1ccc(C#N)cc1)C(=O)C(C(=O)Nc1cc(F)c(Br)c(F)c1)=C2O [Example 222] | 97%
C[C@]12CCCN1N(Cc1ccc(Cl)cc1)C(=O)C(C(=O)Nc1cc(F)c(Br)c(F)c1)=C2O [Example 223] | 77%
C[C@]12CCCN1N(CCCC(F)(F)F)C(=O)C(C(=O)Nc1ccc(C(F)(F)F)cc1-c1cc(C(F)(F)F)ncn1)=C2O [Example 234, (4aR)-4-Hydroxy-4a-methyl-2-oxo-1-(4,4,4-trifluorobutyl)-N-[4-(trifluoromethyl)-2-[6-(trifluoromethyl)pyrimidin-4-yl]phenyl]-6,7-dihydro-5H-pyrrolo[1,2-b]pyridazine-3-carboxamide] | 73%

Source: patent EP2975030B1, “DIHYDROPYRIDAZINE-3,5-DIONE DERIVATIVE” (Chugai Seiyaku Kabushiki Kaisha, priority 2013, dated 2014)
